Laboratory results taken from US11234982B2, “Methods for treating ocular surface pain” (NOVARTIS AG, priority 2019, dated 2022).
Several values for one entry are separate records, joined by “and”; a condition that tells them apart may be missing. Equal values may be shown once.

Legend:
[1] = system: postoperative ocular pain in patients undergoing photorefractive keratectomy (PRK) surgery; assay: PRK study: visual analog scale (VAS) pain assessment; format: in vivo, human
Method: The study was a proof of concept, double-masked, randomized, vehicle-controlled study of compound I administered as eye drops in addition to standard of care treatment in patients after PRK surgery. PRK surgery was performed as an outpatient procedure under topical anesthesia with removal of the corneal epithelium to expose the stroma for the laser ablation. Compound I dosing was as single eye drop of 2.5% (25 mg/ml, 0.925 mg/drop), administered four times daily (every six hours) in one eye from immediate post-op (time 0) to last dose at 72 hours.
The study consisted of 2 treatment periods using a crossover design. Patients underwent PRK surgery on 2 separate occasions (periods), one eye at a time. Patients were randomized to receive either compound 1 or vehicle following procedure 1 and the alternate following procedure 2.
Forty patients were randomized in a 1:1 ratio to two sequences: compound I during period 1, followed by vehicle in period 2, or vehicle during period 1 followed by compound I during period 2. Each patient was administered one drop four times daily for 72 hours following PRK surgery on their study eye (Day 1, Periods 1 and 2). The initial study eye was the non-dominant eye as established at screening and in agreement of the patient and the investigator. The patients returned for follow-up visits on Days 2, 3, 4 and 8 of Period 1 after surgery in the first eye, with optional daily visits to follow the patient until wound healing was complete. The second eye surgery was not performed if any complications were noticed.
Patient subjective experience of pain was recorded using VAS, a numeric assessment of pain between 0 and 100, with 0 representing no pain, and 100 representing worst imaginable pain. […] Since it was important clinically to both decrease the maximum pain as well as the overall pain that the patient experiences during the immediate postoperative period, the two periods of 6 hours and up to 12 hours postoperatively, were evaluated as primary endpoints. All evaluable VAS data was collected using an ePRO, which was an electronic device (cell phone with software application), on which patients marked their pain levels at the appropriate time points.
Rescue oral analgesics: It is not ethical to refuse pain control medication to patients postoperatively as part of a clinical trial. […] Because the use of oral rescue medication may be a potential confounder of the pain VAS evaluation, three approaches were used when analyzing pain VAS scores to account for the influence of pain meds (assuming 4 hours of rescue medication effect): (1) any recorded VAS score within 4 hours after use of rescue medication was considered missing; (2) all the recorded VAS scores was used; and (3) any recorded VAS scores within 4 hours after rescue medication use was imputed by the record taken prior to the rescue medication.

[2] = system: corneal epithelial wound after PRK surgery; assay: PRK study: size of epithelial defect by slit lamp exam (wound healing); format: in vivo, human
From the text: Adverse events and serious adverse events included an assessment of both systemic and ocular assessments. Systemic safety assessments included regular assessments of height and weight, vital signs, reporting medication errors including misuse/abuse, pregnancy reporting and early phase safety monitoring. The misuse/abuse, pregnancy reporting and early phase safety monitoring were not assessed for the study. Ocular safety assessments included the following: • Best-corrected visual acuity (BCVA) and uncorrected visual acuity (UCVA): Was measured at each visit using an ETDRS visual acuity chart at 4 meters (13 feet) or 1 meter (for patients that cannot read the 4 meter chart). The BCVA scoring was done based on the number of correctly read letters plus 30. If visual acuity was so poor that the patient could not read any of the largest letters at 1 meter, count fingers and hand movement vision and light perception was tested. • Intraocular Pressure (TOP): IOP measurements were conducted with applanation tonometry or Tonopen. • Dilated fundus exam: The dilated fundus examination included ophthalmoscopic assessments of the vitreous, retina/macula/choroid, and optic nerve. Evaluations for retinal tear/detachment, retinal hemorrhage, vitreous hemorrhage density, vitreous haze grading and abnormal findings were done and scored according to grading criteria. • Ocular hyperemia: Conjunctival redness of the bulbar conjunctiva in each eye at the slit lamp according to the McMonnies redness scale was graded. […] By adjusting the calibrated slit beam width and height, the maximum horizontal (wound width) and vertical dimensions (wound height) of the surgical epithelial wound was estimated. The evaluation was performed until wound closure and report of wound size as 0 horizontal and 0 vertical dimensions. • Slit-lamp biomicroscopy: Ocular signs (eyelids/conjunctiva, cornea, lens, and iris/anterior chamber) was assessed in both eyes by slit lamp biomicroscopy according to the grading criteria. • Blink rate: A blink was defined as a bilateral paroxysmal closure of the eyelids (duration<1 second) in the absence of a provoking external stimulus. Each blink assessment lasted for 2 min (or as close to 2 minutes as possible with minimum time 1 minute) and the obtained blink rate was averaged to calculate blink rate in blinks/min. • Tear production (Schirmer's test without anesthesia): The test was performed without anesthetic in both eyes simultaneously. Tear secretion was measured in millimeters of the length of strip wetted by tears. […] The strip was wetted with 1 drop of sterile saline and flicked to remove excess saline. The patient blinked several times to ensure dispersion of the dye throughout the tear film prior to grading on a scale of 0-3 (0=Normal, No staining; 1=Mild, Superficial stippling micropunctate staining; 2=Moderate, Macropunctate staining with some coalescent areas and 3=Severe, Numerous coalescent macropunctate areas and/or patches) for each of 5 zones (central plus 4 quadrants).
Size of epithelial defect by slit lamp exam: In order to assess the rate of wound healing after administration of compound I, the size of the epithelial defect in both compound I and Vehicle treated populations was measured. The elliptical area of epithelial wound size was calculated as follows: […], from the width and height of the epithelial defect measured at the slit lamp. The difference in epithelial wound area between compound I and Vehicle was not noticeably different at any time point except at Day 2 post-PRK surgery (all p-values for the difference in area was >0.35). On Day 2 (24 hours post-operative), the difference in average epithelial defect area between patients treated with compound I vs. Vehicle was 11.23 mm2 (p value=0.034). This difference was not clinically significant in the immediate post-operative period. […]

[3] = 2.5% four times daily after PRK
[4] = 2.5% four times daily after PRK, VAS 0-100
[5] = 2.5% four times daily after PRK, VAS 0-100, ORM-adjusted, N = 30

CC(C)c1nc2cc(O)ccc2c(=O)n1-c1ccc(C#N)cc1 [Compound I, 4-(7-hydroxy-2-isopropyl-4-oxo-4H-quinazolin-3-yl)-benzonitrile]
VAS 0-12 hours post-operatively: % Diff compound I vs. Vehicle [1, 3]: −22% | VAS at 6 hours post-operatively: % Diff compound I vs. Vehicle [1, 3]: −25% | VAS 0-12 hours post-operatively: Diff (compound I-Vehicle) of model based means [1, 4]: −8.56 | VAS at 6 hours post-operatively: Diff (compound I-Vehicle) of model based means [1, 4]: −11.1 | Model estimated mean VAS pain severity score 0-12 hours post-operatively [1, 5]: 30.90 | Model estimated mean VAS pain severity score at 6-hours post-operatively [1, 5]: 34.63 | Mean change in VAS score one-half hour after instillation of eye drop ([1]; 6.5 hours vs 6 hours post-operative): −3.1 | Mean change in VAS score one-half hour after instillation of eye drop ([1]; 18.5 hours vs 18 hours post-operative): 2.8 | Mean change in VAS score one-half hour after instillation of eye drop ([1]; 24.5 hours vs 24 hours post-operative): 1.3 | VAS pain severity scores vs Vehicle up to 36 hours after surgery ([1]; all scheduled time points): lower for compound I than Vehicle at all scheduled time points up to and including 36 hours after surgery | Difference between compound I and Vehicle VAS scores from 36 to 72 hours after PRK surgery ([1]; no statistically significant difference at p 0.10): only marginally different | VAS pain severity scores vs Vehicle during the first 18 hours after surgery ([1]; p-value threshold 0.10, 6 out of the 7 time points, starting with hour 1): statistically significantly lower VAS pain severity scores | Epithelial defect area, Difference compound I-Vehicle, mean (SD) ([2]; Day 1): 2.98 (27.33) mm^2 | Epithelial defect size, Area, Raw mean (SD) ([2]; Day 1): 220.15 (32.26) mm^2 | Epithelial defect area, Difference compound I-Vehicle, mean (SD) ([2]; Day 2): 11.23 mm^2 and 11.23 (32.30) mm^2 | Epithelial defect size, Area, Raw mean (SD) ([2]; Day 2): 83.02 (32.08) mm^2 | Epithelial defect area, Difference compound I-Vehicle, mean (SD) ([2]; Day 3): 1.02 (8.78) mm^2 | Epithelial defect size, Area, Raw mean (SD) ([2]; Day 3): 6.75 (12.66) mm^2 | Epithelial defect area, Difference compound I-Vehicle, mean (SD) ([2]; Day 4): 0.31 (2.11) mm^2 | Epithelial defect size, Area, Raw mean (SD) ([2]; Day 4): 0.39 (2.04) mm^2 | Epithelial defect area, Difference compound I-Vehicle, mean (SD) ([2]; Day 8): 0.00 (0.00) mm^2 | Epithelial defect size, Area, Raw mean (SD) ([2]; Day 8): 0.00 (0.00) mm^2 | Wound healing compared to Vehicle ([2]; after PRK surgery): no delay in wound healing
